From the NIST ThermoML archive (doi:10.1016/j.fluid.2009.02.010)
Numbers after ± are expanded uncertainties. One block for each compound: values may come before it.

Key:
[1] = refractive index (Na D-line) (dimensionless); conditions: 298.15 K; 101.33 kPa; Liquid; Standard Abbe refractometry
[2] = Liquid, Ebulliometric method (Recirculating still)

SMILES: C=C(C)CC(C)(C)C [2,4,4-trimethyl-1-pentene]
refractive index [1]: 1.4062 ± 0.0007

SMILES: Cc1ccccc1C [1,2-dimethylbenzene]
refractive index [1]: 1.5028 ± 0.0007

SMILES: C1CCCCC1 [cyclohexane]
refractive index [1]: 1.4235 ± 0.0007

Further lines, results first:

refractive index [1]: 1.3849 ± 0.0007
SMILES: C=CCCCC [hex-1-ene]

vapor or sublimation pressure ([2]; 333.15 K): 15.43 ± 0.35 kPa
vapor or sublimation pressure ([2]; 341.98 K): 21.8 ± 0.35 kPa
vapor or sublimation pressure ([2]; 350.79 K): 30.23 ± 0.36 kPa
vapor or sublimation pressure ([2]; 359.01 K): 40.33 ± 0.37 kPa
vapor or sublimation pressure ([2]; 365.62 K): 50.31 ± 0.38 kPa
vapor or sublimation pressure ([2]; 371.73 K): 61.23 ± 0.39 kPa
vapor or sublimation pressure ([2]; 376.26 K): 70.53 ± 0.4 kPa
vapor or sublimation pressure ([2]; 380.53 K): 80.35 ± 0.42 kPa
vapor or sublimation pressure ([2]; 384.69 K): 91 ± 0.43 kPa
vapor or sublimation pressure ([2]; 387.89 K): 100.02 ± 0.44 kPa
refractive index [1]: 1.5172 ± 0.0007
SMILES: Cc1ccsc1 [3-methylthiophene]

refractive index [1]: 1.3889 ± 0.0007
SMILES: CC(C)CC(C)(C)C [2,2,4-trimethylpentane]
